Test results taken from paper PMC7719179, “Small molecule inhibition of Dynamin-dependent endocytosis targets multiple niche signals and impairs leukemia stem cells” (Nature Communications, 2020).
“And” between values parts separate entries of the source, which are not always exact repeats. Equal values may be shown once.

What was measured:
[1] = tested on: IL-7 signalling (pStat5) in Ba/F3-IL7R cells; assay: IL-7-induced phospho-Stat5 in Ba/F3-IL7R cells (phosphoflow); type: cell-based, murine; details: for pStat5 (MFI): replicates
Procedure: Ba/F3 cells (kindly provided by a person from The Walter and Eliza Hall Institute of Medical Research) were infected with pMIG-R1/Il7r retroviral supernatants produced in 293T cells, and transduced cells were sorted with a BD Influx (BD Australia) and selected by culture in medium supplemented with 5 ng/mL rmIL-7 (#217-17, Pepro Tech, Rocky Hill NJ, USA) for 7 days. Ba/F3 cells stably expressing Il7r (Ba/F3-IL7R) were infected with TxTCPVIR-Stat5-CA retroviral supernatants produced in 293T. Cell sorting was performed with a BD Influx and transduced cells were treated with doxycycline for 48 h to induce the expression of the Stat5-CA-T2A-mCherry fusion protein.
Phosphoflow analysis was performed as previously described. Briefly, 2 × 10^6 cells stained for surface markers were subsequently resuspended into PBS 1× + 4% v/v paraformaldehyde and incubated for 10 min at 4 °C for fixation. Fixed cells were washed twice using PBS 1×, then resuspended in pre-chilled at −20 °C Perm Buffer III (BD Pharmingen) and incubated 30 min at 4 °C for permeabilization. Cells were washed twice using PBS 1× and incubated overnight at 4 °C in PBS 1× + 2% v/v fetal calf serum (FCS) with Cell Signalling purified antibodies (Genesearch Pty Ltd, Arundel QLD, Australia) against pSTAT5 (Tyr694; #9359), phospho-p38 MAPK (Thr180/Tyr182; #4511), phospho-p44/42 (Erk1/2; #9102), phospho-S6 (Ser235/236; #4856) and phospho-Akt (Ser473; #9271) or isotype control. For intracellular HES1 detection, cells stained for surface markers were subsequently fixed and permeabilized using the BD Cytofix/Cytoperm^TM Kit and incubated overnight at 4 °C in PBS 1× + 2% v/v FCS with a purified antibody against HES1 (D6PU; #11988, Cell Signalling) or isotype control. After staining with primary antibodies for phosphoflow or intracellular detection, cells were incubated in permeabilization buffer with donkey Alexa Fluor 488-conjugated anti-rabbit secondary antibody (A-21206, lot #1910751, Molecular Probes, Invitrogen) or goat Alexa Fluor 546-conjugated anti-rabbit secondary antibody (A-11035, lot #1904467, Molecular Probes, Invitrogen) for 1 h on ice, and washed twice in PBS 1×. Fluorescence-activated cell sorting (FACS) analysis was performed using LSRII and LSR Fortessa cytometers, following the gating strategies described in Supplementary Fig. 11. Cell sorting was performed with a FACSAria or BD Influx.
For in vitro IL-7 stimulation assays, cells were starved in serum-free DMEM at 37 °C, then incubated with either vehicle or Dynole 34-2 or Ruxolitinib (INCB018424; #S1378, Selleckchem), or DAPT (GSI-IX; #S2215, Selleckchem) resuspended in DMSO for 1 h. Thymocytes were subsequently stimulated with 25 ng/mL IL-7 at 37 °C for 20 min and washed twice using cold PBS 1×. Cells were incubated with 25 ng/mL Rat IgG (Sigma-Aldrich Pty Ltd, Castle Hill NSW, Australia) and with a PE-conjugated antibody for detection of IL-7R (CD127) for 1 h on ice, as described in the FACS analysis section. PE-conjugated isotype was used as negative control. Cells were washed twice, fixed and phosphoflow analysis performed as described in the FACS analysis section. The analysis was performed in triplicate and the mean fluorescence intensity (MFI) observed without stimulation was reported as 100%.

[2] = tested on: self-renewing pre-LSCs in Mx;YFP;Lmo2^Tg mice; assay: Intrathymic competition assay in Mx;YFP;Lmo2^Tg mice (%YFP+ DN3a thymocytes, BM); type: in vivo, mouse
Text: To exclude this possibility, we used a cell-marking strategy that enables detection of pre-LSCs in the absence of transplantation. In this assay, treatment of Mx1-Cre transgenic Rosa26-YFP (Mx;YFP) reporter mice with polyinosinic-polycytidylic acid (poly (I : C)) induces yellow fluorescent protein (YFP) expression in hematopoietic stem cells (HSCs)[10] (Supplementary Fig. 4e). In WT Mx;YFP mice, normal turnover of the thymus by HSCs leads to the generation of YFP-labelled DN3a cells over a 3-week period. However, in Mx;YFP;Lmo2^Tg mice, the presence of self-renewing pre-LSCs prevents YFP-labelled HSCs to replenish the thymus[10] and, thus, Lmo2^Tg DN3a thymocytes remain YFP negative. Therefore, we reasoned that therapies targeting pre-LSC self-renewal would allow migration of YFP^+ HSCs with the generation of YFP-labelled thymocytes.

## CCCCCCCCNC(=O)C(C#N)=Cc1cn(CCCN(C)C)c2ccccc12 [Dynole 34-2, 2-Cyano-N-octyl-3-(1-(3-dimethylaminopropyl)-1H-indol-3-yl)-acrylamide]
[1]; Ba/F3-IL7R cells, +IL-7, Dynole 34-2 0.2
  pStat5 (MFI): 2033 MFI and 1947 MFI and 1891 MFI
[1]; Ba/F3-IL7R cells, +IL-7, Dynole 34-2 1.0
  pStat5 (MFI): 1526 MFI and 1732 MFI and 1712 MFI
[1]; Ba/F3-IL7R cells, +IL-7, Dynole 34-2 5.0
  pStat5 (MFI): 1296 MFI and 1207 MFI and 1690 MFI
[1]; Ba/F3-IL7R cells, +IL-7, Dynole 34-2 10.0
  pStat5 (MFI): 1304 MFI and 1113 MFI and 1201 MFI
[1]; Ba/F3-IL7R cells, +IL-7, Dynole 34-2 25.0
  pStat5 (MFI): 1259 MFI and 1141 MFI and 1161 MFI
[1]; Ba/F3-IL7R cells, result in words
  inhibition of IL-7 signalling as measured by loss of phospho-Stat5: dose-dependent inhibition
[1]; Mus musculus, Ba/F3-IL7R cells + IL-7, flow cytometry, read-out: IC50, inhibition of IL-7 signalling (pStat5)
  IC50: 4.29 ± 0.77 µM
[2]; Mx, YFP, Lmo2Tg mice, individual mice
  % YFP+ cells in DN3a population: 70.1% and 38.6% and 29.3%
[2]; Mx;YFP;Lmo2^Tg mice, vehicle 10%
  YFP-labelled DN3a thymocytes: 46%
[2]; genotype Mx, YFP, Lmo2Tg
  % YFP+ cells in bone marrow: 99% and 98.9%
